What follows are compounds tested against T1, His-tagged full-length RSK2 (RPS6KA3) (Homo sapiens, UniProt P51812) (assay: RSK2 Omnia Assay for compound IC50 determination). Conditions: ATP 15 μM, n=2, read-out: Mean RSK2 Biochem IC50.
T1 construct: His-tagged full-length RSK2 (RPS6KA3, Invitrogen PV3323); His; purchased Invitrogen PV3323
T1 sequence (P51812 whole entry): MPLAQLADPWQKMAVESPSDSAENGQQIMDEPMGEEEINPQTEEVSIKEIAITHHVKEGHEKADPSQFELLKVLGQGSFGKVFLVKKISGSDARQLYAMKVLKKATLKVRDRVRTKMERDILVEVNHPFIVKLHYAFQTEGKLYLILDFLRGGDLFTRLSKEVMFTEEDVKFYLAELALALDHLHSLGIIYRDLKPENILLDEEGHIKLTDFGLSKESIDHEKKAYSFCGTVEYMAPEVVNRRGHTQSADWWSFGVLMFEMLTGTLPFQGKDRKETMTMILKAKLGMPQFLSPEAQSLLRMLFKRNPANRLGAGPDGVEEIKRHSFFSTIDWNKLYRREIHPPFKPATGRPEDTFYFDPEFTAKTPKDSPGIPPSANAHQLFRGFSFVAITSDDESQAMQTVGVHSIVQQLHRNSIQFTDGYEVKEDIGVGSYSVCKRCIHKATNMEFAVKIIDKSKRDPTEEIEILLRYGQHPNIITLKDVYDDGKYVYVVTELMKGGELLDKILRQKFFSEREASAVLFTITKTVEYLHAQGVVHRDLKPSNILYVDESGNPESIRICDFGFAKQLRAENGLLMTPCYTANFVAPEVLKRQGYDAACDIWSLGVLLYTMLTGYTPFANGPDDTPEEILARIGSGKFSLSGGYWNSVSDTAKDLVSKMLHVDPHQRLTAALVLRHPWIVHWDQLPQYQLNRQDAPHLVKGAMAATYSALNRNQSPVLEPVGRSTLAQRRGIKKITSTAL
Type: biochemical
Protocol: RSK1 & RSK2 Omnia Assay Protocol for Compound IC50 Determination
The Omnia Assay (Invitrogen) has been optimized for His-tagged full length RSK1 (RPS6KA1, Millipore 14-509) and for His-tagged full-length RSK2 (RPS6KA3, Invitrogen PV3323). In this assay system, Omnia ST Peptide 6 (Invitrogen KNZ1061) functions as a substrate for RSK1 or RSK2. Phosphorylation of this SOX-containing peptide results in an increase in fluorescence at 485 nm upon excitation at 360 nm.
Assays are carried out in 384-well OptiPlates (Perkin Elmer 6007290) in a total volume of 20 μL containing RSK1 ([…]) or RSK2 ([…]), Omnia ST Peptide 6 (5 μM), ATP (15 μM, Km=16.3 μM), and test compound (variable) in RSK assay buffer (50 mM HEPES, pH 7.5, 10 mM MgCl2, 0.01% Tween-20, 1% glycerol, 1 mM DTT, 1 mM EGTA, 0.01% BSA) with 1% DMSO.
IC50s for test compounds are typically determined using an 11-point three-fold serial dilution with a final assay concentration ranging either from 170 μM to […] or from 17 μM to […]. All compound concentrations are assayed in duplicate. Initial compound dilutions are prepared at 100× concentration in 100% DMSO from a 10 mM stock solution. Compounds are further diluted 1:25 in assay buffer resulting in a 4× concentrated solution.
To run the assay 5 μL of the above 4× concentrated compound solution (or 4% DMSO for positive controls) is added to the assay plate followed by 5 μL of a solution containing peptide (20 μM) and ATP (60 μM) in assay buffer. The reaction is initiated by the addition of 10 μL of RSK1 ([…]) or RSK2 ([…]) in assay buffer, or assay buffer alone for negative controls. The increase in fluorescence due to peptide phosphorylation is monitored continuously as a function of time using a Spectramax M5 plate reader (Molecular Devices) equipped with SoftMax Pro software.
The slopes from the linear portion of progress curves are used to determine IC50 values by non-linear curve-fitting to a four-parameter equation using GraphPad Prism (GraphPad Software, Inc.) or XLFit (IDBS). IC50's are determined in duplicate (n=2) and Ki values are calculated from IC50 values using the Cheng-Prusoff equation assuming a competitive mode of inhibition.
`COc1ccc(N2C(=O)[C@@H](C)N(C3CCC(C)(C)CC3)c3nc(Nc4cc(F)c5[nH]ncc5c4)ncc32)cc1OC` [Example 210, (7R)-5-(3,4-dimethoxyphenyl)-8-(4,4-dimethylcyclohexyl)-2-[(7-fluoro-1H-indazol-5-yl)amino]-7-methyl-7,8-dihydropteridin-6(5H)-one] was tested, and the IC50 was no more than 100 nM. For `CC1C(=O)N(c2ccccc2)c2cnc(Nc3ccc4c(c3)CC(=O)N4)nc2N1C1CCCCC1` (stereo not shown) [Example 60, 8-cyclohexyl-7-methyl-2-[(2-oxo-2,3-dihydro-1H-indol-5-yl)amino]-5-phenyl-7,8-dihydropteridin-6(5H)-one], the IC50 was no more than 100 nM. `C[C@@H]1C(=O)N(c2ccc(N(C)C)nc2)c2cnc(Nc3ccc4[nH]ncc4c3)nc2N1C1CCCCC1` [compound 129, (7R)-8-cyclohexyl-5-[6-(dimethylamino)pyridin-3-yl]-2-(1H-indazol-5-ylamino)-7-methyl-7,8-dihydropteridin-6(5H)-one] showed an IC50 of no more than 100 nM. `C[C@@H]1C(=O)N(c2cccc(C#N)c2)c2cnc(Nc3cc(F)c4[nH]ncc4c3)nc2N1[C@H]1CC[C@H](C)CC1` [compound 237, 3-[(7R)-2-[(7-fluoro-1H-indazol-5-yl)amino]-7-methyl-8-(trans-4-methylcyclohexyl)-6-oxo-7,8-dihydropteridin-5(6H)-yl]benzonitrile] gave an IC50 of no more than 100 nM. `C[C@@H]1C(=O)N(c2cccc(C#N)c2)c2cnc(Nc3ccc4[nH]c(=O)[nH]c4c3)nc2N1C1CCC(F)(F)CC1` [compound 265, 3-[(7R)-8-(4,4-difluorocyclohexyl)-7-methyl-6-oxo-2-[(2-oxo-2,3-dihydro-1H-benzimidazol-5-yl)amino]-7,8-dihydropteridin-5(6H)-yl]benzonitrile] gave an IC50 greater than 1000 nM. `C[C@@H]1C(=O)N(c2cccnc2)c2cnc(Nc3cc(F)c4[nH]ncc4c3)nc2N1C1CCC(C)(C)CC1` [Example 208, (7R)-8-(4,4-dimethylcyclohexyl)-2-[(7-fluoro-1H-indazol-5-yl)amino]-7-methyl-5-(pyridin-3-yl)-7,8-dihydropteridin-6(5H)-one] showed an IC50 of no more than 100 nM. `CC(C)Oc1ccc(N2C(=O)[C@@H](C)N(C3CCC(F)(F)CC3)c3nc(Nc4cnc5[nH]ncc5c4)ncc32)cc1C#N` [compound 286, 5-[(7R)-8-(4,4-difluorocyclohexyl)-7-methyl-6-oxo-2-(1H-pyrazolo[3,4-b]pyridin-5-ylamino)-7,8-dihydropteridin-5(6H)-yl]-2-(propan-2-yloxy)benzonitrile] was tested, and the IC50 was 100 to 1000 nM. With `C[C@@H]1C(=O)N(c2cccnc2)c2cnc(Nc3ccc4[nH]ncc4c3F)nc2N1C1CCCCC1` [compound 122, (7R)-8-cyclohexyl-2-[(4-fluoro-1H-indazol-5-yl)amino]-7-methyl-5-(pyridin-3-yl)-7,8-dihydropteridin-6(5H)-one] the IC50 was no more than 100 nM. With `CCOc1ccc(N2C(=O)[C@@H](C)N([C@H]3CC[C@H](C)CC3)c3nc(Nc4cnc5[nH]ncc5c4)ncc32)cc1C#N` [compound 246, 2-Ethoxy-5-[(7R)-7-methyl-8-(trans-4-methylcyclohexyl)-6-oxo-2-(1H-pyrazolo[3,4-b]pyridin-5-ylamino)-7,8-dihydropteridin-5(6H)-yl]benzonitrile] the IC50 was no more than 100 nM. With `C[C@@H]1C(=O)N(c2cccc(F)c2)c2cnc(Nc3ccc4[nH]ncc4c3F)nc2N1C1CCCCC1` [compound 120, (7R)-8-cyclohexyl-2-[(4-fluoro-1H-indazol-5-yl)amino]-5-(3-fluorophenyl)-7-methyl-7,8-dihydropteridin-6(5H)-one] the IC50 was no more than 100 nM. `COc1ccc(N2C(=O)[C@@H](C)N(C3CCCCC3)c3nc(NCCc4cn[nH]c4)ncc32)cc1OC` [compound 170] showed an IC50 greater than 1000 nM. Compound `C[C@@H]1C(=O)N(c2cccc(C#N)c2)c2cnc(Nc3ccc(S(N)(=O)=O)cc3)nc2N1C1CCC(F)(F)CC1` [compound 273, 4-{[(7R)-5-(3-cyanophenyl)-8-(4,4-difluorocyclohexyl)-7-methyl-6-oxo-5,6,7,8-tetrahydropteridin-2-yl]amino}benzenesulfonamide] has an IC50 of no more than 100 nM. Compound `C[C@@H]1C(=O)N(c2cccc(C#N)c2)c2cnc(Nc3cc(F)c(O)c(F)c3)nc2N1C1CCOCC1` [compound 194, 3-[(7R)-2-[(3,5-difluoro-4-hydroxyphenyl)amino]-7-methyl-6-oxo-8-(tetrahydro-2H-pyran-4-yl)-7,8-dihydropteridin-5(6H)-yl]benzonitrile] has an IC50 of no more than 100 nM. For `[2H]C1([2H])C(N2c3nc(Nc4cc(F)c5[nH]ncc5c4)ncc3N(c3ccc(OC)c(OC)c3)C(=O)[C@H]2C)C([2H])([2H])C([2H])([2H])C([2H])([2H])C1([2H])[2H]` [compound 300, (7R)-8-[(2,2,3,3,4,4,5,5,6,6-2H10)cyclohexyl]-5-(3,4-dimethoxyphenyl)-2-[(7-fluoro-1H-indazol-5-yl)amino]-7-methyl-7,8-dihydropteridin-6(5H)-one], the IC50 was no more than 100 nM. `CC(C)CCN1c2cc(Nc3ccc4[nH]ncc4c3)ncc2N(c2ccccc2)C(=O)C1C` (stereo not shown) [Example 310, 7-(1H-indazol-5-ylamino)-2-methyl-1-(3-methylbutyl)-4-phenyl-1,4-dihydropyrido[3,4-b]pyrazin-3(2H)-one] was tested, and the IC50 was 100 to 1000 nM. Work on `C[C@@H]1C(=O)N(c2cccnc2)c2cnc(Nc3cc(F)c4[nH]ncc4c3)nc2N1[C@H]1CC[C@H](C(F)(F)F)CC1` [compound 256] yielded an IC50 of no more than 100 nM. `CC1C(=O)N(c2ccccc2)c2cnc(Nc3ccc4c(c3)CC(=O)N4)nc2N1C1CCCC1` (stereo not shown) [Example 65, 8-cyclopentyl-7-methyl-2-[(2-oxo-2,3-dihydro-1H-indol-5-yl)amino]-5-phenyl-7,8-dihydropteridin-6(5H)-one] showed an IC50 of no more than 100 nM. In the case of `CCOc1ccc(N2C(=O)[C@@H](C)N(C3CCOCC3)c3nc(Nc4ccc5[nH]c(=O)oc5c4)ncc32)cc1C#N` [compound 198, 2-Ethoxy-5-[(7R)-7-methyl-6-oxo-2-[(2-oxo-2,3-dihydro-1,3-benzoxazol-6-yl)amino]-8-(tetrahydro-2H-pyran-4-yl)-7,8-dihydropteridin-5(6H)-yl]benzonitrile], the IC50 is reported as no more than 100 nM. In the case of `CC(C)CCN1c2nc(Nc3cc(F)c4[nH]ncc4c3)ncc2N(c2ccc(OC(C)C)c(C#N)c2)C(=O)[C@H]1C` [Example 93, 5-[(7R)-2-[(7-fluoro-1H-indazol-5-yl)amino]-7-methyl-8-(3-methylbutyl)-6-oxo-7,8-dihydropteridin-5(6H)-yl]-2-(propan-2-yloxy)benzonitrile], the IC50 is reported as no more than 100 nM. Work on `C[C@@H]1C(=O)N(c2cccc(C#N)c2)c2cnc(Nc3cc4cn[nH]c4cn3)nc2N1C1CCC(F)(F)CC1` [compound 268, 3-[(7R)-8-(4,4-difluorocyclohexyl)-7-methyl-6-oxo-2-(1H-pyrazolo[3,4-c]pyridin-5-ylamino)-7,8-dihydropteridin-5(6H)-yl]benzonitrile] yielded an IC50 of 100 to 1000 nM. Compound `C[C@@H]1C(=O)N(c2ccc(C#N)cc2)c2cnc(Nc3ccc4[nH]ncc4c3)nc2N1C1CCCCC1` [Example 19, 4-[(7R)-8-cyclohexyl-2-(1H-indazol-5-ylamino)-7-methyl-6-oxo-7,8-dihydropteridin-5(6H)-yl]benzonitrile] has an IC50 of no more than 100 nM. In the case of `COc1ccc(N2C(=O)[C@@H](C)N([C@H]3CC[C@H](C)CC3)c3nc(Nc4ccc5[nH]c(=O)oc5c4)ncc32)cc1C#N` [compound 244, 2-methoxy-5-[(7R)-7-methyl-8-(trans-4-methylcyclohexyl)-6-oxo-2-[(2-oxo-2,3-dihydro-1,3-benzoxazol-6-yl)amino]-7,8-dihydropteridin-5(6H)-yl]benzonitrile], the IC50 is reported as no more than 100 nM.

From US9351974B2, “Substituted pteridinones for the treatment of cancer” (OSI Pharmaceuticals, LLC, priority 2011, dated 2016)
